Legend:
[1] = tested on: p52 (NF-kB2) nuclear translocation, HeLa cells; assay: p52 (NF-kB2) nuclear translocation assay in HeLa cells (non-classical NF-kB signaling, anti-lymphotoxin beta receptor antibody stimulated); type: cell-based; settings: Homo sapiens, 100 ng/mL anti-lymphotoxin beta receptor antibody for 5 hours, read-out: p52 HeLa Transloc Assay (IC50)
Procedure, shortened: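 HeLa cells in 10% FBS medium were treated with compound (0.2% DMSO final) and stimulated with 100 ng/mL anti-lymphotoxin beta receptor antibody for 5 h. Fixed cells were immunostained for p52 and imaged with DRAQ5 nuclear stain. Translocation is the nuclear to cytoplasmic intensity ratio, and IC50 values are in micromolar.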

[2] = tested on: REL-A (p65) nuclear translocation, HeLa cells; assay: REL-A (p65) nuclear translocation assay in HeLa cells (classical NF-kB signaling, TNF-α stimulated); type: cell-based; settings: Homo sapiens, 0.5 h; HeLa cells, 10 ng/mL TNF-α for 30 minutes; read-out: REL-A HeLa Transloc Assay (IC50)
Procedure, shortened: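 HeLa cells were exposed to test compounds at various concentrations (0.2% DMSO final) in medium with 10% fetal bovine serum for 4.5 hours, then stimulated for 30 minutes with 10 ng/mL TNF-α. After fixation in 4% paraformaldehyde, 0.1% Triton X-100 permeabilization and staining with 400 ng/mL anti-REL-A (p65) antibody, Alexa488 secondary and DRAQ5, Opera imaging gave nuclear-to-cytoplasmic signal ratios to calculate IC50.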

[3] = target: nuclear factor-kappa B (NF-kB)-inducing kinase (NIK) (Homo sapiens (Human), UniProt Q99558); assay: NIK enzyme inhibition assay (Transcreener ADP, NIK ADP-FP); type: biochemical; settings: purified NIK 0.5 nM, 10 μM ATP, fluorescence polarization; read-out: NIK ADP-FP (Ki μM)
Chain of nuclear factor-kappa B (NF-kB)-inducing kinase (NIK) (Q99558 whole entry): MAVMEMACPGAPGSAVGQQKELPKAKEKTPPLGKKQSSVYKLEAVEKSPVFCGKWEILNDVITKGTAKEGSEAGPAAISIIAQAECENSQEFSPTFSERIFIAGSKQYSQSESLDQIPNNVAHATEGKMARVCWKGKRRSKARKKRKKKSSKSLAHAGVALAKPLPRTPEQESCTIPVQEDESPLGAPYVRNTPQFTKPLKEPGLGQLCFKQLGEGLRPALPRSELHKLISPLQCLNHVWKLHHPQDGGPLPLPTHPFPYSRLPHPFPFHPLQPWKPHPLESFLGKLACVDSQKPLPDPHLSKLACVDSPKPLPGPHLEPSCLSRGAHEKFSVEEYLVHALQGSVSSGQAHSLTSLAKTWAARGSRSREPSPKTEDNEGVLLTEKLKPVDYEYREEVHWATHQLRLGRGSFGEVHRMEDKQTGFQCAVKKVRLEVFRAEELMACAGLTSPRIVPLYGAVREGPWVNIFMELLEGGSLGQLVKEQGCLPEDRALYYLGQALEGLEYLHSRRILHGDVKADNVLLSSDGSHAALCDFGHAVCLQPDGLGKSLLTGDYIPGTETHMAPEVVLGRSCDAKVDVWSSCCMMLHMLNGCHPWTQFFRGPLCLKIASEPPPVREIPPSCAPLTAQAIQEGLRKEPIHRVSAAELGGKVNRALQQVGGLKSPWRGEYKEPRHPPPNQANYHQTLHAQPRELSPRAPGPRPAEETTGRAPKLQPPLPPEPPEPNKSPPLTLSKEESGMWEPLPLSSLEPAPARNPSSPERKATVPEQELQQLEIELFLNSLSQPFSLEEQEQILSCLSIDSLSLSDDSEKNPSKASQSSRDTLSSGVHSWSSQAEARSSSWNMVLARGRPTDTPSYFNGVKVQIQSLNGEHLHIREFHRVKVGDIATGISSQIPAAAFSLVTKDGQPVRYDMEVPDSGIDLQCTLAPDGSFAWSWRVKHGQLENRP

SMILES	IC50 [1]	IC50 [2]	Ki [3]
Cc1ccc2c(C(N)=O)nn(-c3cccc(C#C[C@]4(O)CCN(C)C4=O)c3)c2n1 [Compound 175, 1-[3-[2-[(3R)-3-hydroxy-1-methyl-2-oxo-pyrrolidin-3-yl]ethynyl]phenyl]-6-methyl-pyrazolo[3,4-b]pyridine-3-carboxamide]	135 nM	> 2000 nM	0.05 nM
CN1CC[C@@](O)(C#Cc2cccc(-c3nc(C(N)=O)n4c3CCCC4)c2)C1=O [Compound 177, (R)-1-(3-((3-hydroxy-1-methyl-2-oxopyrrolidin-3-yl)ethynyl)phenyl)-5,6,7,8-tetrahydroimidazo[1,5-a]pyridine-3-carboxamide]	150 nM	> 2000 nM	0.11 nM
CN1CC[C@@](O)(C#Cc2cccc(-c3nc(C(N)=O)n4ccc(C(N)=O)cc34)c2)C1=O [Compound 178, 1-[3-[2-[(3R)-3-hydroxy-1-methyl-2-oxo-pyrrolidin-3-yl]ethynyl]phenyl]imidazo [1,5-a]pyridine-3,7-dicarboxamide]	636 nM	> 2000 nM	0.1 nM
COc1ccn2c(C(N)=O)nc(-c3cccc(C#C[C@@](C)(O)c4nnc(C)o4)c3)c2c1 [Compound 181, 1-[3-[(3R)-3-hydroxy-3-(5-methyl-1,3,4-oxadiazol-2-yl)but-1-ynyl]phenyl]-7-methoxy-imidazo[1,5-a] pyridine-3-carboxamide]	48 nM	> 2000 nM	0.1 nM
Cc1nnc([C@](C)(O)C#Cc2cccc(-c3nc(C(N)=O)n4cc(Cl)ccc34)c2)o1 [Compound 185, 6-chloro-1-[3-[(3R)-3-hydroxy-3-(5-methyl-1,3,4-oxadiazol-2-yl)but-1-ynyl]phenyl]imidazo[1,5-a]pyridine-3-carboxamide]	1500 nM	> 2000 nM	7.54 nM
CN1CC[C@@](O)(C#Cc2ccc(F)c(-c3nc(C(N)=O)n4cc(Cl)ccc34)c2)C1=O [Compound 186, 6-chloro-1-[2-fluoro-5-[2-[(3R)-3-hydroxy-1-methyl-2-oxo-pyrrolidin-3-yl]ethynyl]phenyl]imidazo[1,5-a] pyridine-3-carboxamide]	36 nM	> 2000 nM	0.1 nM
Cc1nnc([C@](C)(O)C#Cc2cccc(-c3nc(C(N)=O)n4ccc(Cl)cc34)c2)o1 [Compound 187, 7-chloro-1-[3-[(3R)-3-hydroxy-3-(5-methyl-1,3,4-oxadiazol-2-yl)but-1-ynyl]phenyl] imidazo[1,5-a]pyridine-3-carboxamide]	198 nM	> 2000 nM	1.12 nM
CC1Cc2c(C(N)=O)nn(-c3cccc(C#C[C@]4(O)CCN(C)C4=O)c3)c2C1 (stereo partly drawn) [Compound 188, 1-[3-[2-[(3R)-3-hydroxy-1-methyl-2-oxo-pyrrolidin-3-yl]ethynyl]phenyl]-5-methyl-5,6-dihydro-4H-cyclopenta [c]pyrazole-3-carboxamide]	205 nM	> 2000 nM	0.85 nM
CN1CC[C@@](O)(C#Cc2cccc(-n3nc(C(N)=O)c4ccc(F)cc43)c2)C1=O [Compound 189, 6-fluoro-1-[3-[2-[(3R)-3-hydroxy-1-methyl-2-oxo-pyrrolidin-3-yl]ethynyl]phenyl] indazole-3-carboxamide]	95 nM	> 2000 nM	0.05 nM
